In patent US20050070510A1, “Substituted tetracycline compounds as synergistic antifungal agents” (Paratek Pharmaceuticals, Inc., priority 2001, published 2005):

test system: COS-1 cells; experiment: In vitro mammalian cytotoxicity assay (Resazurin); settings: not given

Row | SMILES | In Vitro Cytotoxicity
1 | CN(C)[C@@H]1C(O)=C(C(N)=O)C(=O)[C@@]2(C#N)C(O)=C3C(=O)c4c(ccc(NC=O)c4O)C(N)[C@@]3(N)[C@H](O)[C@@]12N (stereo partly shown) [DC] | ** (toxicities less than 25 μg/mL are represented by **)
2 | CN(C)c1cc(C#Cc2cccc(O)c2)c(O)c2c1C[C@@]1(N)C[C@@]3(N)[C@H](N(C)C)C(O)=C(C(N)=O)C(=O)[C@@]3(C#N)C(O)=C1C2=O [FG] | ** (toxicities less than 25 μg/mL are represented by **)
3 | CN(C)c1cc(C#CC(=O)O)c(O)c2c1C[C@@]1(N)C[C@@]3(N)[C@H](N(C)C)C(O)=C(C(N)=O)C(=O)[C@@]3(C#N)C(O)=C1C2=O [HZ] | * (toxicities greater than >25 μg/ml are represented by *)
4 | CN(C)[C@@H]1C(O)=C(C(N)=O)C(=O)[C@@]2(C#N)C(O)=C3C(=O)c4c(O)ccc(-c5cncnc5)c4C[C@@]3(N)C[C@@]12N [TQ] | * (toxicities greater than >25 μg/ml are represented by *)
5 | CN(C)[C@@H]1C(O)=C(C(N)=O)C(=O)[C@@]2(C#N)C(O)=C3C(=O)c4c(O)cccc4[C@H](N)[C@@]3(N)[C@H](OC(=O)C34CC5CC(CC(C5)C3)C4)[C@@]12N [CJ] | ** (toxicities less than 25 μg/mL are represented by **)
6 | CN(C)[C@@H]1C(O)=C(C(N)=O)C(=O)[C@@]2(C#N)C(O)=C3C(=O)c4c(O)ccc(-c5ccccc5)c4C[C@@]3(N)C[C@@]12N [LK] | ** (toxicities less than 25 μg/mL are represented by **)
7 | CCOc1ccc(-c2ccc(O)c3c2C[C@@]2(N)C[C@@]4(N)[C@H](N(C)C)C(O)=C(C(N)=O)C(=O)[C@@]4(C#N)C(O)=C2C3=O)cc1CN [OR] | * (toxicities greater than >25 μg/ml are represented by *)
8 | CN(C)[C@@H]1C(O)=C(C(N)=O)C(=O)[C@@]2(C#N)C(O)=C3C(=O)c4c(O)ccc(-c5ccc6c(c5)OCO6)c4C[C@@]3(N)C[C@@]12N [EO] | ** (toxicities less than 25 μg/mL are represented by **)
9 | CN(C)c1cc(NC(=O)Nc2ccc([N+](=O)O)cc2)c(O)c2c1C[C@@]1(N)C[C@@]3(N)[C@H](N(C)C)C(O)=C(C(N)=O)C(=O)[C@@]3(C#N)C(O)=C1C2=O [IC] | * (toxicities greater than >25 μg/ml are represented by *)
10 | COc1ccc(C#Cc2ccc(O)c3c2C[C@@]2(N)C[C@@]4(N)[C@H](N(C)C)C(O)=C(C(N)=O)C(=O)[C@@]4(C#N)C(O)=C2C3=O)cc1 [FZ] | ** (toxicities less than 25 μg/mL are represented by **)
11 | CC(C)CNC(=O)NCc1cc(N(C)C)c2c(c1O)C(=O)C1=C(O)[C@]3(C#N)C(=O)C(C(N)=O)=C(O)[C@@H](N(C)C)[C@]3(N)C[C@]1(N)C2 [MF] | * (toxicities greater than >25 μg/ml are represented by *)
12 | CN(C)[C@@H]1C(O)=C(C(N)=O)C(=O)[C@@]2(C#N)C(O)=C3C(=O)c4c(O)ccc(C#Cc5ccc([N+](=O)O)cc5)c4C[C@@]3(N)C[C@@]12N [FU] | ** (toxicities less than 25 μg/mL are represented by **)

test system: Candida albicans (ATCC#90028); experiment: Synergetic antifungal activity with amphotericin B, broth microdilution (NCCLS); assay type: cell-based; settings: amphotericin B alone

Row | SMILES | amphotericin B MIC
13 | C[C@@H]1[C@H](O)[C@@H](C)/C=C/C=C/C=C/C=C/C=C/C=C/C=C/[C@H](O[C@@H]2O[C@H](C)[C@@H](O)[C@H](N)[C@@H]2O)C[C@@H]2O[C@](O)(C[C@@H](O)C[C@@H](O)[C@H](O)CC[C@@H](O)C[C@@H](O)CC(=O)O[C@H]1C)C[C@H](O)[C@H]2C(=O)O [Amphotericin B] | 0.5 µg/mL
